Our source for the IC50 and inhibition values is ChEMBL document CHEMBL1150010, “Inhibition of cartilage degradation by isothiazoloquinolinones” (Bioorg Med Chem Lett, 1994).

The species named for test [1] is Bos taurus. The test is described as follows: In vitro inhibition of IL1-beta (interleukin-1-beta) induced degradation of bovine nasal cartilage in an organ culture assay. Type of test: functional.
The species entered for test [2] is Bos taurus. The experiment in a line: In vitro inhibition of IL1-beta (interleukin-1-beta) induced degradation of bovine nasal cartilage in an organ culture assay at 30 uM. The class given is functional.

Turning to `O=c1cc2c3ccccc3sn2c2ccccc12`, in the test listed under Bos taurus [1], half-maximal inhibition (IC50) required 8 µM.
The compound `COc1cc2c(=O)cc3c4ccccc4sn3c2c(OC)c1OC` returned an inhibition at 30 µM in the test listed under Bos taurus [2] of 80%.
On the same count and under the same terms, with `COc1cccc2c(=O)cc3c4ccccc4sn3c12` the figure was 74%.
With `O=c1cc2c3ccccc3sn2c2ccc(Cl)cc12`, in the test listed under Bos taurus [2], the inhibition at 30 µM is 84%.
As for `O=c1cc2c3cccnc3sn2c2ccccc12`, the midpoint of inhibition in the test listed under Bos taurus [1], the IC50, lay at 22 µM.
In the test listed under Bos taurus [2], `COc1cccc2c1sn1c3ccccc3c(=O)cc21` displayed an inhibition at 30 µM of 30%.

One may read the IC50 as the point on the concentration scale where inhibition reaches its midpoint. A high value points to a need for much substance. What is called inhibition is how much of the control response was suppressed.
